The values that follow come from paper PMC9945182 (Chemical Research in Toxicology, 2023).

Like-named read-outs stand apart in the source and are kept apart here.

One series deals with T1, CYP2A6 (Homo sapiens, UniProt P11509).
T1 sequence (P11509 1-494): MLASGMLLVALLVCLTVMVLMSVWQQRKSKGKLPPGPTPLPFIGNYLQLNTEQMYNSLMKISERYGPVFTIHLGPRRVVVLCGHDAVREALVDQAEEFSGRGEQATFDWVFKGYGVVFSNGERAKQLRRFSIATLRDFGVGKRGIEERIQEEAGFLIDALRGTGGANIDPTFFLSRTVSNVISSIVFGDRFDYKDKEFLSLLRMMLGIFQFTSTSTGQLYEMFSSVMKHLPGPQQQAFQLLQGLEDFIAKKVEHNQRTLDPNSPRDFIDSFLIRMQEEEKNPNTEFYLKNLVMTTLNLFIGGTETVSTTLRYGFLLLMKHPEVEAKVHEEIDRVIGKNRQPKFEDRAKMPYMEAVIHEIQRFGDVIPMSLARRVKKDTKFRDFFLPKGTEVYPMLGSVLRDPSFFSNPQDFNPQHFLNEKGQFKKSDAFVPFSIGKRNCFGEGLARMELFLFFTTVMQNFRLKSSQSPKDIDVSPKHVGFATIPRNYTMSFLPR
It counts as biochemical. As to conditions: 10 μM inhibitor; cotinine substrate; CYP2A6 microsomes.

The test system of a further series is cigarette smokers. As to conditions: single 800 mg oral dose, compared with a placebo group; cited from earlier work.
The next series has as its target T2, UGT2B7 (Homo sapiens, UniProt P16662).
T2 sequence (P16662 24-529): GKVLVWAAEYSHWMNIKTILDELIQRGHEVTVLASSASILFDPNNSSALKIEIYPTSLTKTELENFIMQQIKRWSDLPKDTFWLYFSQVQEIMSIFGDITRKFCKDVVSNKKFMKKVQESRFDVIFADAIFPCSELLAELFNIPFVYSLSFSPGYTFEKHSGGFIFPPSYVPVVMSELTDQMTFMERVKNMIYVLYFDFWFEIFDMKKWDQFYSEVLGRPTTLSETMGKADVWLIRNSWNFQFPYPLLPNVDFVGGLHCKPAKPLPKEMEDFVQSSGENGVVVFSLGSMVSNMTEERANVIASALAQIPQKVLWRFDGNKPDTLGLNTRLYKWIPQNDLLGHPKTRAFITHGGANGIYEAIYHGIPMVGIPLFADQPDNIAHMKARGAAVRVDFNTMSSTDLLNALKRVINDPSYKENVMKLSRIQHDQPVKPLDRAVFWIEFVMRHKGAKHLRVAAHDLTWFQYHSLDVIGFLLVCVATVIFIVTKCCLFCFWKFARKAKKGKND
In kind it is biochemical. The conditions noted are these: for decrease in 3HC-Gluc formation: 3HC 30 mM, UGT2B7 microsomes.

The target of another series is T3, UGT2B10 (Homo sapiens, UniProt P36537).
T3 sequence (P36537 24-528): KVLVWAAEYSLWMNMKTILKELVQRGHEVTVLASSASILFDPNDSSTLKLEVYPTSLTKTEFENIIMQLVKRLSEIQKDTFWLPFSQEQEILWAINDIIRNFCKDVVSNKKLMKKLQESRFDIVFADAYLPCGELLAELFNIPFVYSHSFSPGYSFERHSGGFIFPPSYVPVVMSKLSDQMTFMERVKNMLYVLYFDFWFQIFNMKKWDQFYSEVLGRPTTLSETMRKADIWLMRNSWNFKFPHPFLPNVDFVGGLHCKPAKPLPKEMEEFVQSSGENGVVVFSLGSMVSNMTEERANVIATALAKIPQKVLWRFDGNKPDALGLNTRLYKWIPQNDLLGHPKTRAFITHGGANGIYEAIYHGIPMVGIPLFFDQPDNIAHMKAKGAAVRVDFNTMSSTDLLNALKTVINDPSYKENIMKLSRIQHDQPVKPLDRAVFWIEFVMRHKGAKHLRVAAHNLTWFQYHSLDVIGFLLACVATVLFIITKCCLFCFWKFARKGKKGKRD
As to conditions: previous studies; cited from earlier work.

Series [1] deals with human liver microsomes (HLM). Put plainly: Inhibition of 3HC to 3HC-Gluc formation in human liver microsomes. It counts as biochemical. The conditions noted are these: up to 100 μM CBD. (Liver microsomes are vesicles of endoplasmic reticulum, rich in cytochrome P450 enzymes.)
The conditions of series [2]: to protein and labware; cited from earlier work.

Consider `C=C(C)[C@@H]1CCC(CO)=C[C@H]1c1c(O)cc(CCCCC)cc1O` [7-OH-CBD, 7-hydroxy-cannabidiol], for which the “inhibition of COX formation” value against CYP2A6 is on record as 40%.

For the compound `C=C(C)[C@@H]1CCC(C)=C[C@H]1c1c(O)cc(CCCCC)cc1O` [CBD, cannabidiol], the “effect on cigarette cues” value in the series on cigarette smokers is “reduced the salience and pleasantness of cigarette cues”. Besides, the “decrease in 3HC-Gluc formation” value at UGT2B7 (1 μM CBD) stood at 35%; on UGT2B7 (10 μM CBD), 55%. On UGT2B7 (human, microsomes from UGT2B7-overexpressing HEK293 cells, pH 7.4, probe 3HC (30 mM), 3HC-Gluc formation), this compound returned an inhibition at 100 μM of more than 50%. On UGT2B10, the “inhibition of nicotine-Gluc formation by UGT2B10” value is listed as “does not inhibit”. In series [1], the “inhibition of 3HC-Gluc formation” value is recorded as less than 45%. For the same compound, the nonspecific binding in series [2] was 70–90%.

In general, inhibition refers to the relative decrease from the control value, in per cent. Read a low inhibition as a weak effect.
